Assay results published in PMC6597268 (Biochemistry, 2019).

Tests used:
[1] = target: T1, MitE (Streptomyces lavendulae, UniProt Q9X5R7); test: HPLC of AHBA released from MmcB by KOH or cysteamine; type: biochemical; conditions: holo-MmcB as acceptor
T1 sequence (Q9X5R7 1-707): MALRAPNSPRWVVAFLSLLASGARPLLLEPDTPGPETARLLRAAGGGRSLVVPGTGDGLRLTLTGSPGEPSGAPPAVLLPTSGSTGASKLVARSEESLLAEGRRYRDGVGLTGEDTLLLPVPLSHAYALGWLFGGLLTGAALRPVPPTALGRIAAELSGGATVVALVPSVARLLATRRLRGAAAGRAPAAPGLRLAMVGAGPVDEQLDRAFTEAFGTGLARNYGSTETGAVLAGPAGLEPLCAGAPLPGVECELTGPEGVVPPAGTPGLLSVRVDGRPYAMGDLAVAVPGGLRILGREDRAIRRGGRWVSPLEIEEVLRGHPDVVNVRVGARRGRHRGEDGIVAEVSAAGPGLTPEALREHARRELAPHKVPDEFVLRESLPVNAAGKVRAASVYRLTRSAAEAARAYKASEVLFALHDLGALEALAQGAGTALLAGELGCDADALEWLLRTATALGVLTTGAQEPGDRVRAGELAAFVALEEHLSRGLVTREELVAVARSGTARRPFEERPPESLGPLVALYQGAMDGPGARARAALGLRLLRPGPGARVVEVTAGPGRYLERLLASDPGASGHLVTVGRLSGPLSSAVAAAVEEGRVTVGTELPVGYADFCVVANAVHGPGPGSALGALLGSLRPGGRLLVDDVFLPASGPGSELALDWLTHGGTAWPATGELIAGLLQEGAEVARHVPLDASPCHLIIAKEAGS
T1 sequence (Q9X5S0 1-93 partner): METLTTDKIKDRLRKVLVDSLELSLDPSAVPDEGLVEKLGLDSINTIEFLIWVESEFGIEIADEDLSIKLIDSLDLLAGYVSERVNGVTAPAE

[2] = target: MitB (Streptomyces lavendulae, UniProt Q9WW09); test: anion exchange HPLC steady-state kinetics, Michaelis-Menten fit; type: biochemical; conditions: pseudo-first order

With `Nc1cc(O)cc(C(=O)O)c1` [AHBA] the “HPLC of AHBA released from MmcB by KOH or cysteamine” value ([1]; ATP) was “These evidences in combination suggest that MitE catalyzes the loading of AHBA onto holo-MmcB”.

With `Nc1ncnc2c1ncn2[C@@H]1O[C@H](COP(=O)(O)OP(=O)(O)OP(=O)(O)O)[C@@H](O)[C@H]1O` [ATP] the “HPLC of AHBA released from MmcB by KOH or cysteamine” value ([1]; AHBA) was “we investigated the ability of MitE to load AHBA to holo-MmcB in the presence of ATP”.

Work on `CC(=O)NCCSC(=O)c1cc(N)cc(O)c1` [SNAc-AHBA] yielded a Km ([2]; 2 mM UDP-GlcNAc as donor) of 10 ± 3.3 mM.

`CC(=O)N[C@H]1[C@@H](OP(=O)(O)OP(=O)(O)OC[C@H]2O[C@@H](n3ccc(=O)[nH]c3=O)[C@H](O)[C@@H]2O)O[C@H](CO)[C@@H](O)[C@@H]1O` [UDP-GlcNAc] gave a Km ([2]; 2 mM SNAc-AHBA (unsaturating) as acceptor) of 0.94 ± 0.15 mM.
